Experimental data reported in US7932281B2, “Amine-based compound and use thereof” (Kureha Corporation, priority 2004, dated 2011).

Tests used:
[1] = Conversion of Compound No. 91 to Compound No. 84 in rat serum, LCMS (Test Example 5); type: in vitro ADME; conditions: for Proportion found by LCMS, Rat, 0 minutes / Proportion found by LCMS, Rat, 30 minutes: Compound No. 91 incubated in rat serum/saline
Protocol: (§1) 147 μl of human serum pool (manufactured by Cosmo Bio Co. Ltd.) or pool serum obtained by centrifugation (3,500 rpm for 10 minutes) of whole blood collected from a Crj:CD (SD) IGS male rat (manufactured by Charles River Laboratories Japan, INC.) was dispensed in a tube. 147 μl of a physiological saline solution (manufactured by Hikari Pharmaceutical Co., Ltd.) was dispensed thereto. Subsequently, the whole was preincubated for 3 minutes. The solution was added and mixed with a solution (3 μl) obtained by: diluting a 25 mmol/l DMSO solution containing the Compound No. 91 with a physiological saline solution to adjust to 500 μmol/l. The reaction was allowed to start in a thermomixer. After 30 minutes later, the solution was added with 0.1% formic acid/methanol solution (600 μl) and the whole was mixed. The solution was subjected to centrifugation (15,000 rpm for 5 minutes) and the supernatant was subjected to LCMS (liquid chromatograph mass spectrometry) measurement.

CXCR4 = molecular target: T1, CXCR4 (Homo sapiens, UniProt P61073); assay: Inhibition of 125I-SDF-1α binding to receptors CXCR4 on MT-4 cells (Test Example 2); conditions: binding-inhibition % at 0.01 μM, 2 hours under ice-cooling, read-out: Inhibition rate (%)
T1 construct: endogenous in cells; host or cells: MT-4 cells
T1 sequence (P61073 whole entry): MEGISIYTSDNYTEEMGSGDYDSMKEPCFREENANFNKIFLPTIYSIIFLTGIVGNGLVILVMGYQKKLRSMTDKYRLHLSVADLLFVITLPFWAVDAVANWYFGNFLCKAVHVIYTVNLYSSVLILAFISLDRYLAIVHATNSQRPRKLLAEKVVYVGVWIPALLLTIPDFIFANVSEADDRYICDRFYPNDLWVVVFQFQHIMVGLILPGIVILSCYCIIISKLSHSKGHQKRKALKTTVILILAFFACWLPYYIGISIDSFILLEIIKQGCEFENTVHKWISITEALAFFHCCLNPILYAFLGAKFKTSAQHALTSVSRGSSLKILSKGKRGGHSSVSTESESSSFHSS
Protocol: MT-4 cells (5×10^6/0.2 ml/well) were cultured on a 24-well microtiter plate. After the cells were incubated for 24 hours at 37° C. in a carbon dioxide gas incubator, a culture medium was replaced with a buffer solution (0.1% BSA-containing RPMI-1640). Together with a ligand ^125I-SDF-1α (specific activity: 2,200 Ci/mmol; available from Daiichi Pure Chemicals Co., Ltd. (Tokyo)), test materials with various concentrations were subjected to a binding reaction for 2 hours under ice-cooling. […] Then, a rate of inhibition of the binding between radioactive ligands and receptors CXCR4 by a test material was calculated (a binding-inhibition % at 0.01 μM).

[2] = tested on: HIV-1IIIB infected MT-4 cells; assay: Anti-HIV activity, HIV-1IIIB infected MT-4 cells, MTT method (Test Example 1); type: cell-based; conditions: Human immunodeficiency virus 1, MT4, 120 h, concentration required for inhibition of cell disorder due to HIV infection by 50%, MOI 0.01, 5 days
Protocol: Immediately after infection, HIV-1IIIB infected MT-4 cells (3.0×10^4/well, MOI (Multiplicity of infection): 0.01) were added to a 96-well microtiter plate together with the test compounds having different concentrations. The cells were cultured in a carbon dioxide incubator at 37° C. for 5 days, and the number of living cells was measured in accordance with the MTT (tetrazolium) method ([…], et al., J. of Virol. Method, 20, 309-321 […]). The antiviral activity is represented by the concentration required for inhibition of cell disorder due to HIV infection by 50% (EC50: 50% Effective Concentration) (μM), and the results are shown in Table 2.

[3] = Conversion of Compound No. 91 to Compound No. 84 in human serum, LCMS (Test Example 5); type: in vitro ADME; conditions: for Proportion found by LCMS, Human, 0 minutes / Proportion found by LCMS, Human, 30 minutes: Compound No. 91 incubated in human serum/saline
Protocol: as §1

SD mice = assay: Acute toxicity, single transvenous administration (Test Example 3); type: in vivo; conditions: 6-week-old male SD mice, 2.5 mg/kg transvenously once in physiological saline
Protocol: The aforementioned compound was examined for acute toxicity. Specifically, 6-week-old SD mice (male) were divided into several groups (2 to 3 mice in each group). Subsequently, each of the compounds of Examples was dissolved in a physiological saline solution, and the solution was transvenously administered to the mice (dose: 2.5 mg/kg) once. Then, the number of dead mice was counted.

## CCCN(CCC)CCCCN(CC(=O)O)Cc1ccc(CN(Cc2ncc[nH]2)Cc2nccn2C)cc1 [Compound No. 84, [(4-dipropylamino-butyl)-(4-[[(1H-imidazol-2-ylmethyl)-(1-methyl-1H-imidazol-2-ylmethyl)-amino]-methyl]-benzyl)-amino]-acetic acid]
[1]
  Proportion found by LCMS, Rat, 0 minutes: 24%
[1]; 30 minutes
  Proportion found by LCMS, Rat, 30 minutes: 100%
CXCR4
  inhibition at 0.01 µM: 88.3%
[2]
  EC50: 3 nM
[3]
  Proportion found by LCMS, Human, 0 minutes: 1%
[3]; 30 minutes
  Proportion found by LCMS, Human, 30 minutes: 80%
SD mice
  Dead mice/test mice: 0/3

## CCCN(CCC)CCCCN(CC(=O)OCC)Cc1ccc(CN(Cc2ncc[nH]2)Cc2nccn2C)cc1 [Compound No. 91]
[1]
  Proportion found by LCMS, Rat, 0 minutes: 76%
[1]; 30 minutes
  Proportion found by LCMS, Rat, 30 minutes: 0%
[1]; rat serum, 30 minutes
  conversion of prodrug in serum: converted to the Compound No. 84
CXCR4
  inhibition at 0.01 µM: 87.7%
[2]
  EC50: 3 nM
[3]
  Proportion found by LCMS, Human, 0 minutes: 99%
[3]; 30 minutes
  Proportion found by LCMS, Human, 30 minutes: 20%
[3]; human serum, 30 minutes
  conversion of prodrug in serum: converted to the Compound No. 84
SD mice
  Dead mice/test mice: 0/3
